Test results reported in PubChem BioAssay AID330 (DTP/NCI, 2004).
Several values for one entry are separate records, joined by “and”; a condition that tells them apart may be missing. Identical values can stand only once. Toxic doses and inconclusive results are not listed. How the source made its calls: active means survival T/C of 150% or more; inactive means T/C below 125% in these data.

System: P388 leukemia ip, CD2F1 mice, survival T/C
Experiment: NCI In Vivo Anticancer Drug Screen. Data for tumor model P388 Leukemia (intraperitoneal) in CD2F1 (CDF1) mice
Details: endpoint: median survival time, higher = longer survival
In short: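 Mice carrying the transplanted tumor received test compound or vehicle. Survival was recorded in each group, and the value is the treated-group measurement divided by that of the vehicle-treated control group.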

[1] = dose: 50.0 mg/kg/injection, schedule: Q01DX009 (ip), vehicle: saline with Tween-80
[2] = dose: 100.0 mg/kg/injection, schedule: Q01DX009 (ip), vehicle: saline with Tween-80
[3] = dose: 50.0 mg/kg/injection, schedule: Q01DX009 (ip), vehicle: Klucel (hydroxypropylcellulose) (HPC)
[4] = dose: 100.0 mg/kg/injection, schedule: Q01DX009 (ip), vehicle: Klucel (hydroxypropylcellulose) (HPC)
[5] = dose: 200.0 mg/kg/injection, schedule: Q01DX009 (ip), vehicle: Klucel (hydroxypropylcellulose) (HPC)
[6] = dose: 60.0 mg/kg/injection, schedule: Q01DX005 (ip), vehicle: saline with Tween-80
[7] = dose: 120.0 mg/kg/injection, schedule: Q01DX005 (ip), vehicle: saline with Tween-80
[8] = dose: 12.5 mg/kg/injection, schedule: Q01DX005 (ip), vehicle: saline
[9] = dose: 25.0 mg/kg/injection, schedule: Q01DX005 (ip), vehicle: saline
[10] = dose: 50.0 mg/kg/injection, schedule: Q01DX005 (ip), vehicle: Klucel (hydroxypropylcellulose) (HPC)
[11] = dose: 100.0 mg/kg/injection, schedule: Q01DX005 (ip), vehicle: Klucel (hydroxypropylcellulose) (HPC)
[12] = dose: 200.0 mg/kg/injection, schedule: Q01DX005 (ip), vehicle: Klucel (hydroxypropylcellulose) (HPC)
[13] = dose: 60.0 mg/kg/injection, schedule: Q01DX005 (ip), vehicle: Klucel (hydroxypropylcellulose) (HPC)
[14] = dose: 120.0 mg/kg/injection, schedule: Q01DX005 (ip), vehicle: Klucel (hydroxypropylcellulose) (HPC)
[15] = dose: 240.0 mg/kg/injection, schedule: Q01DX005 (ip), vehicle: Klucel (hydroxypropylcellulose) (HPC)
[16] = dose: 200.0 mg/kg/injection, schedule: Q01DX009 (ip), vehicle: saline with Tween-80
[17] = dose: 50.0 mg/kg/injection, schedule: Q01DX005 (ip), vehicle: saline with Tween-80
[18] = dose: 100.0 mg/kg/injection, schedule: Q01DX005 (ip), vehicle: saline with Tween-80
[19] = dose: 200.0 mg/kg/injection, schedule: Q01DX005 (ip), vehicle: saline with Tween-80
[20] = dose: 50.0 mg/kg/injection, schedule: Q01DX005 (ip), vehicle: saline
[21] = dose: 100.0 mg/kg/injection, schedule: Q01DX005 (ip), vehicle: saline
[22] = dose: 200.0 mg/kg/injection, schedule: Q01DX005 (ip), vehicle: saline

Measured: T/C

O=C(c1ccco1)C(O)NC(=S)c1ccc(Cl)cc1 (centres undefined)
inactive: [1] 113 % of control and 117 % of control | [2] 116 % of control

COC(=O)/C=C(\C)Oc1cc(Cl)c(Cl)cc1Cl
inactive: [2] 91 % of control | dose: 400.0 mg/kg/injection, schedule: Q01DX009 (ip), vehicle: saline with Tween-80 87 % of control

COc1cccc2c1C(=O)c1c(O)c3c(c(O)c1C2=O)C[C@@](O)(C(=O)COc1ccccc1)C[C@@H]3OC1CC(N)C(O)C(C)O1 (some centres undefined)
active: dose: 1.56 mg/kg/injection, schedule: Q01DX009 (ip), vehicle: water 151 % of control and 169 % of control | dose: 3.13 mg/kg/injection, schedule: Q01DX009 (ip), vehicle: water 155 % of control and 179 % of control | dose: 6.25 mg/kg/injection, schedule: Q01DX009 (ip), vehicle: water 174 % of control and 186 % of control | dose: 12.5 mg/kg/injection, schedule: Q01DX009 (ip), vehicle: water 176 % of control and 179 % of control

CCC[N+]12CC=C3COC(=O)C(C)(O)C(C)(O)C(C)C(=O)OC(CC1)C32 (centres undefined)
inactive: dose: 60.0 mg/kg/injection, schedule: Q01DX005 (ip), vehicle: saline 100 % of control | dose: 120.0 mg/kg/injection, schedule: Q01DX005 (ip), vehicle: saline 105 % of control | dose: 240.0 mg/kg/injection, schedule: Q01DX005 (ip), vehicle: saline 98 % of control

O=C1OC(=O)C23Cc4ccccc4CC12CC1Cc2ccccc2CC1C3 (centres undefined)
inactive: [3] 100 % of control | [4] 88 % of control | [5] 94 % of control

CCOC(=O)c1c(C(=O)OC)nc2n1-c1ccccc1OC2
inactive: dose: 30.0 mg/kg/injection, schedule: Q01DX005 (ip), vehicle: saline with Tween-80 97 % of control | [6] 92 % of control and 94 % of control | [7] 93 % of control | dose: 240.0 mg/kg/injection, schedule: Q01DX005 (ip), vehicle: saline with Tween-80 93 % of control

NC1CC1N (centres undefined)
inactive: dose: 6.25 mg/kg/injection, schedule: Q01DX009 (ip), vehicle: saline 101 % of control | dose: 12.5 mg/kg/injection, schedule: Q01DX001 (ip), vehicle: saline 107 % of control | dose: 12.5 mg/kg/injection, schedule: Q01DX009 (ip), vehicle: saline 101 % of control | dose: 25.0 mg/kg/injection, schedule: Q01DX001 (ip), vehicle: saline 107 % of control | dose: 25.0 mg/kg/injection, schedule: Q01DX009 (ip), vehicle: saline 100 % of control | dose: 50.0 mg/kg/injection, schedule: Q01DX001 (ip), vehicle: saline 101 % of control

COC1/C=C/OC2(C)Oc3c(C)c(O)c4c(c3C2=O)C(=O)C=C(NC(=O)/C(C)=C\C=C\C(C)C2OC(C)(C)OC(C(C)C(=O)C1C)C2C)C4=O (centres undefined)
inactive: dose: 100.0 mg/kg/injection, schedule: Q01DX001 (ip), vehicle: saline with Tween-80 103 % of control | dose: 200.0 mg/kg/injection, schedule: Q01DX001 (ip), vehicle: saline with Tween-80 95 % of control | dose: 400.0 mg/kg/injection, schedule: Q01DX001 (ip), vehicle: saline with Tween-80 100 % of control

O=C1c2ccccc2-c2c1nc1ccccc1[n+]2[O-]
inactive: dose: 6.25 mg/kg/injection, schedule: Q01DX005 (ip), vehicle: saline 102 % of control | [8] 103 % of control | [9] 96 % of control

CC(=O)c1ccc2c3c(cc(C)c2c1)CCCC3
inactive: [10] 103 % of control | [11] 99 % of control | [12] 89 % of control

CC(C)CCCC(C)C1CCC2C3CCC4C5Oc6ccccc6N=C5CCC4(C)C3CCC12C (centres undefined)
inactive: [13] 92 % of control | [14] 97 % of control | [15] 93 % of control

CC(=O)Oc1ccc(OC(C)=O)c2cc3c(cc12)C(=O)C(C)=C(C)C3=O
inactive: [10] 89 % of control | [11] 97 % of control | [12] 111 % of control

NC(=S)C1OC(COC(=O)c2ccccc2)C(OC(=O)c2ccccc2)C1OC(=O)c1ccccc1 (centres undefined)
inactive: [1] 96 % of control | [2] 94 % of control | [16] 102 % of control

NCCNc1ncnc2ccc(Cl)cc12
inactive: [17] 97 % of control | [18] 93 % of control | [19] 92 % of control

CCCCCCCCCCCCCCCCCCSc1c(OC)c(OC(C)=O)c(OC)c(OC)c1OC(C)=O
inactive: dose: 4.0 mg/kg/injection, schedule: Q01DX009 (ip), vehicle: Klucel (hydroxypropylcellulose) (HPC) 87 % of control | dose: 8.0 mg/kg/injection, schedule: Q01DX009 (ip), vehicle: Klucel (hydroxypropylcellulose) (HPC) 98 % of control | dose: 16.0 mg/kg/injection, schedule: Q01DX009 (ip), vehicle: Klucel (hydroxypropylcellulose) (HPC) 96 % of control | dose: 32.0 mg/kg/injection, schedule: Q01DX009 (ip), vehicle: Klucel (hydroxypropylcellulose) (HPC) 98 % of control

COC1OCC(N=[N+]=[N-])C(O)C1O (centres undefined)
inactive: [9] 98 % of control | [20] 102 % of control | [21] 100 % of control | [22] 102 % of control

c1ccc(C2OCC3(CO2)COC(c2ccccc2)OC3)cc1 (centres undefined)
inactive: [1] 90 % of control | [2] 100 % of control | [16] 90 % of control

O=C1NC(O)c2cc(F)ccc2O1 (centres undefined)
inactive: dose: 25.0 mg/kg/injection, schedule: Q01DX005 (ip), vehicle: saline with Tween-80 104 % of control | [17] 105 % of control and 110 % of control | [18] 111 % of control and 115 % of control | [19] 111 % of control

Nc1ccccc1SC(C[N+](=O)[O-])c1ccc2c(c1)OCO2 (centres undefined)
inactive: [6] 115 % of control | [7] 114 % of control

CN(C)Cc1cn(C)c2ccccc12
inactive: [8] 99 % of control | [9] 93 % of control | [20] 98 % of control and 95 % of control

O=S(=O)(c1ccc(NC(=S)N2CCOCC2)cc1)N1CCCCC1
inactive: [3] 100 % of control | [4] 96 % of control | [5] 97 % of control

CC(C)(C)C(=O)Oc1ccc(N=C(N)N)cc1
inactive: [20] 102 % of control | [21] 104 % of control | [22] 105 % of control

COc1cc2c(cc1O)C(CSC)Cc1cc(OC)c(OC)cc1N(C)CC2 (centres undefined)
inactive: [1] 104 % of control | [2] 101 % of control | [16] 109 % of control

O=C(O)CCCCCCCCCCOc1ccc(Cl)cc1
inactive: dose: 50.0 mg/kg/injection, schedule: Q04DX003 (ip), vehicle: Klucel (hydroxypropylcellulose) (HPC) 96 % of control | dose: 100.0 mg/kg/injection, schedule: Q04DX003 (ip), vehicle: Klucel (hydroxypropylcellulose) (HPC) 99 % of control | dose: 200.0 mg/kg/injection, schedule: Q04DX003 (ip), vehicle: Klucel (hydroxypropylcellulose) (HPC) 105 % of control | dose: 400.0 mg/kg/injection, schedule: Q04DX003 (ip), vehicle: Klucel (hydroxypropylcellulose) (HPC) 92 % of control

C[N+](C)=c1ccc2nc3c(cc(Nc4ccccc4)c4ccccc43)oc-2c1
inactive: [13] 88 % of control | [14] 91 % of control | [15] 103 % of control

CCC(CO)N=C(C1=C(O)c2ccccc2C1=O)c1ccccc1 (centres undefined)
inactive: dose: 100.0 mg/kg/injection, schedule: Q04DX002 (ip), vehicle: saline with Tween-80 104 % of control | dose: 200.0 mg/kg/injection, schedule: Q04DX002 (ip), vehicle: saline with Tween-80 92 % of control

CCCC[N+]1(C)CCC(OC(=O)C(O)(c2ccccc2)C2CCCC2)C1 (centres undefined)
inactive: dose: 12.5 mg/kg/injection, schedule: Q01DX009 (ip), vehicle: Klucel (hydroxypropylcellulose) (HPC) 95 % of control | dose: 25.0 mg/kg/injection, schedule: Q01DX009 (ip), vehicle: Klucel (hydroxypropylcellulose) (HPC) 90 % of control | [3] 98 % of control and 89 % of control

N/C(=N\O)c1cn(C2OC(CO)C(O)C2O)c2ncnc(N)c12 (centres undefined)
active: dose: 2.5 mg/kg/injection, schedule: Q01DX009 (ip), vehicle: saline sonified 154 % of control | dose: 5.0 mg/kg/injection, schedule: Q01DX009 (ip), vehicle: saline sonified 159 % of control

Cc1cc(=O)c2ccc(Br)cc2[nH]1
inactive: [17] 100 % of control | [18] 97 % of control | [19] 100 % of control

CCOc1cc2c(=O)[nH]cnc2c(OCC)c1OCC
inactive: [1] 106 % of control | [2] 100 % of control | [16] 98 % of control
